Assay results from US11945822B2, “Pyrazolo-triazine and/or pyrazolo-pxrimidine derivatives as selective inhibitor of cyclin dependent kinase” (QURIENT CO., LTD., priority 2018, dated 2024).

target: T1, CDK1/Cyclin B (Homo sapiens, UniProt P06493); test: Enzymatic assay for CDK1 (FRET based LANCE Ultra kinase assay); type: biochemical; settings: read-out: CDK1 enzymatic activity (IC50 range)
T1 construct: purchased Invitrogen PR4768C
Method in brief: (§1)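 Each CDK complex ([…]) phosphorylated 68 nM ULight-MBP peptide with ATP at Km for 60 min at 23° C., against 8 compound doses (4-fold dilutions). EDTA/Eu-anti-phospho-MBP detection, 60 min, then TR-FRET emission at 615 and 665 nm.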

T1 sequence (P06493 whole entry): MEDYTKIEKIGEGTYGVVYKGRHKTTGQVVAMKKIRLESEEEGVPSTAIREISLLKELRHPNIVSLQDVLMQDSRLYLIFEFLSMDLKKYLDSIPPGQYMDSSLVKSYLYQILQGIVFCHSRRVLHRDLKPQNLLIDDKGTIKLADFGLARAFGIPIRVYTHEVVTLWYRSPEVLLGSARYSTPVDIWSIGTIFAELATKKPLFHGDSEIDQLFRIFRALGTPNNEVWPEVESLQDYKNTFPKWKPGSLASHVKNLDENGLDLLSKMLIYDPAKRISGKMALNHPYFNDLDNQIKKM
T1 sequence (P14635 whole entry partner): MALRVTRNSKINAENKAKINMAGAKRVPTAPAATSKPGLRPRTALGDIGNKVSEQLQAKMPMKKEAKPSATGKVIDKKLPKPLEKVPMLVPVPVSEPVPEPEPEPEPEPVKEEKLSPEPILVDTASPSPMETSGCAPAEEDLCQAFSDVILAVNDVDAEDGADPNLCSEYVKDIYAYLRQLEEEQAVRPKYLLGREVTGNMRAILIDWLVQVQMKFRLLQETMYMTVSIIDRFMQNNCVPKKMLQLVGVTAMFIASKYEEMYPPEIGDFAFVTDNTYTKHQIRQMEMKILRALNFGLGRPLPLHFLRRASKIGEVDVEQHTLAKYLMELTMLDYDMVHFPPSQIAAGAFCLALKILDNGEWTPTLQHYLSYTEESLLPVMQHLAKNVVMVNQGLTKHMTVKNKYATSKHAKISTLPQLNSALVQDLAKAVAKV

| IC50 [nM] | Compound |
| --- | --- |
| > 1000 | CC(C)c1cnn2c(NCc3ccccc3-n3cccn3)nc(-c3cccc(OC4CCNC4)c3)nc12 (racemic) [Compound 163] |
| > 1000 | CC(C)c1cnn2c(NCc3ccccc3-c3ccc4ccccc4n3)nc(N3CCC(N)CC3)nc12 [Compound 48] |

tested on: MV4-11; test: Cellular MV4-11 viability assay (CellTiter-Glo, 72 hours); type: cell-based; settings: Homo sapiens
Method in brief: (§2)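 CellTiter-Glo luminescence read in duplicate after 72 h compound exposure (37 °C, 5% CO2); DMSO-only control, final DMSO under 0.1%.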

| IC50 [nM] | Compound |
| --- | --- |
| < 1000 | CC(C)c1cnn2c(NCc3ccccc3-n3cccn3)nc(-c3cccc(OC4CCNC4)c3)nc12 (racemic) [Compound 163] |
| < 1000 | CC(C)c1cnn2c(NCc3ccccc3-c3ccc4ccccc4n3)nc(N3CCC(N)CC3)nc12 [Compound 48] |

tested on: HCT116; test: Cellular HCT116 viability assay (CellTiter-Glo, 72 hours); type: cell-based; settings: Homo sapiens, HCT-116
Method in brief: as §2

| IC50 [nM] | Compound |
| --- | --- |
| < 1000 | CC(C)c1cnn2c(NCc3ccccc3-c3ccc4ccccc4n3)nc(N3CCC(N)CC3)nc12 [Compound 48] |

tested on: MOLT-4; test: Cellular MOLT-4 viability assay (CellTiter-Glo, 72 hours); type: cell-based; settings: Homo sapiens, MOLT4 viability assay
Method in brief: as §2

| IC50 [nM] | Compound |
| --- | --- |
| 1000 to 10000 | CC(C)c1cnn2c(NCc3ccccc3-c3ccc4ccccc4n3)nc(N3CCC(N)CC3)nc12 [Compound 48] |

tested on: RPMI-8226; test: Cellular RPMI-8226 viability assay (CellTiter-Glo, 72 hours); type: cell-based; settings: Homo sapiens
Method in brief: as §2

| IC50 [nM] | Compound |
| --- | --- |
| < 1000 | CC(C)c1cnn2c(NCc3ccccc3-c3ccc4ccccc4n3)nc(N3CCC(N)CC3)nc12 [Compound 48] |

target: T2, CDK5/p25 (Homo sapiens, UniProt Q00535); test: Enzymatic assay for CDK5 (FRET based LANCE Ultra kinase assay); type: biochemical; settings: read-out: CDK5 enzymatic activity (IC50 range)
T2 construct: purchased Invitrogen PR8543B
Method in brief: as §1

T2 sequence (Q00535 whole entry): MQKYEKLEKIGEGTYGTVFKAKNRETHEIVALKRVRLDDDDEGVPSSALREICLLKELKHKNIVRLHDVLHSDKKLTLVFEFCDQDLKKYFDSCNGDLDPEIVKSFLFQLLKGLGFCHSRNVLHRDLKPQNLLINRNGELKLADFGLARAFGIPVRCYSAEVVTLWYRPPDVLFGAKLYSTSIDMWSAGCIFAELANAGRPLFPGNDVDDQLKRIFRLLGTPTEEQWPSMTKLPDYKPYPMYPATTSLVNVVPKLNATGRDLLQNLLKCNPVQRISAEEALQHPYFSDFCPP
T2 sequence (Q15078 99-307 partner limits assumed): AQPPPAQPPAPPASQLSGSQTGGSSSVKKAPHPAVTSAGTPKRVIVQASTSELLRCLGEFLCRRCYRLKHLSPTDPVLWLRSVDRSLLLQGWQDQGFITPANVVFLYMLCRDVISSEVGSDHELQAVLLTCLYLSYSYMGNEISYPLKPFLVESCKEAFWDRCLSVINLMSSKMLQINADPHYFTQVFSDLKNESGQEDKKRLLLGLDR

| IC50 [nM] | Compound |
| --- | --- |
| 100 to 1000 | CC(C)c1cnn2c(NCc3ccccc3-n3cccn3)nc(-c3cccc(OC4CCNC4)c3)nc12 (racemic) [Compound 163] |
| 100 to 1000 | CC(C)c1cnn2c(NCc3ccccc3-c3ccc4ccccc4n3)nc(N3CCC(N)CC3)nc12 [Compound 48] |

target: T3, CDK2/Cyclin A (Homo sapiens, UniProt P24941); test: Enzymatic assay for CDK2 (FRET based LANCE Ultra kinase assay); type: biochemical; settings: read-out: CDK2 enzymatic activity (IC50 range)
T3 construct: purchased Invitrogen PV6290
Method in brief: as §1

| IC50 [nM] | Compound |
| --- | --- |
| 100 to 1000 | CC(C)c1cnn2c(NCc3ccccc3-n3cccn3)nc(-c3cccc(OC4CCNC4)c3)nc12 (racemic) [Compound 163] |
| > 1000 | CC(C)c1cnn2c(NCc3ccccc3-c3ccc4ccccc4n3)nc(N3CCC(N)CC3)nc12 [Compound 48] |

tested on: OVCAR-3; test: Cellular OVCAR-3 viability assay (CellTiter-Glo, 72 hours); type: cell-based; settings: Homo sapiens
Excerpt: Human T-cell acute lymphoblastic leukemia cell line, MOLT-4 (ATCC, Cat #CRL-1582), Human multiple myeloma cell line, RPMI-8226 (Invitrogen, Cat #22400-089) and MM.1S (ATCC, Cat #CRL-2974), NSCLC (Non-small cell lung cancer) cell line H460 (ATCC, Cat #HTB-177), Human colon colorectal carcinoma cell line HCT116 (ATCC, Cat #CCL-247), Human acute monocytic leukemia cell line MV4-11 (ATCC, Cat #CRL-9591), OVCAR-3 (ATCC, Cat #HTB-161) and A2780 (ECACC, Cat #93112519) were obtained from ATCC. Cells were grown in RPMI-1640 media (Invitrogen, Cat #22400-089) supplemented with 10% FBS (Invitrogen, Cat #10099141) and 1% penicillin/streptomycin (Invitrogen, Cat #15070063) and cultured at 37° C., 5% CO2 in a humidified chamber. All cell lines were routinely tested for mycoplasma.
The effect of the CDK7 inhibitor to inhibit the growth of target cancer cells was evaluated through the 72 hours time period of viability assay. Briefly, the candidate cell line ware plated in 96 well plate at the following density of cells respectively. 1×10^4 cells/well for MOLT-4, RPMI-8226, MV4-11 and MM.1S, 5×10^3 for H460, HCT116 and OVCAR-3 and IX 10^3 for A2780. After 24 hours, the cells were treated with various concentrations of the compound (ranging from 0.0015 uM to 10 uM). DMSO solvent without compound served as a control and final DMSO concentration less than 0.1%. After 72 hours of incubation at 37° C., 5% CO2 incubator, cells were analyzed for the viability using the CellTiter-Glo Luminescent Cell Viability Assay (Promega, Cat #G7570). All viability assays were performed in duplicate and Luminescence was read using an Envision (Perkin Elmer, USA). Data was analyzed using XLfit software.

| IC50 [nM] | Compound |
| --- | --- |
| 1000 to 10000 | CC(C)c1cnn2c(NCc3ccccc3-n3cccn3)nc(-c3cccc(OC4CCNC4)c3)nc12 (racemic) [Compound 163] |
| 1000 to 10000 | CC(C)c1cnn2c(NCc3ccccc3-c3ccc4ccccc4n3)nc(N3CCC(N)CC3)nc12 [Compound 48] |

tested on: MM.1S; test: Cellular MM.1S viability assay (CellTiter-Glo, 72 hours); type: cell-based; settings: Homo sapiens, MM1.S
Method in brief: (§3)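 Compound exposure lasted 72 h at 37° C, 5% CO2, over 0.0015–10 uM, DMSO kept under 0.1%, with dosing 24 h after seeding. Seeding: A2780 1×10^3, OVCAR-3 5×10^3, MM.1S 1×10^4 cells/well in 10% FBS RPMI-1640. Duplicate CellTiter-Glo luminescence readout.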

| IC50 [nM] | Compound |
| --- | --- |
| ≤ 1000 | CC(C)c1cnn2c(NCc3ccccc3-n3cccn3)nc(-c3cccc(OC4CCNC4)c3)nc12 (racemic) [Compound 163] |
| ≤ 1000 | CC(C)c1cnn2c(NCc3ccccc3-c3ccc4ccccc4n3)nc(N3CCC(N)CC3)nc12 [Compound 48] |

tested on: H460; test: Cellular H460 viability assay (CellTiter-Glo, 72 hours); type: cell-based; settings: Homo sapiens, NCI-H460
Method in brief: as §2

| IC50 [nM] | Compound |
| --- | --- |
| < 1000 | CC(C)c1cnn2c(NCc3ccccc3-n3cccn3)nc(-c3cccc(OC4CCNC4)c3)nc12 (racemic) [Compound 163] |
| < 1000 | CC(C)c1cnn2c(NCc3ccccc3-c3ccc4ccccc4n3)nc(N3CCC(N)CC3)nc12 [Compound 48] |

target: T4, CDK7/Cyclin H/MNAT1 (Homo sapiens, UniProt P50613); test: Enzymatic assay for CDK7 (FRET based LANCE Ultra kinase assay); type: biochemical; settings: CDK7 over CDK1
T4 construct: purchased Invitrogen PR6749B
Method in brief: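 Inhibition was measured at Km ATP by time-resolved FRET between a Eu anti-phospho antibody and a phosphorylated ULight peptide. The enzyme was the purified CDK7/cyclin complex, and data were curve-fitted.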

T4 sequence (P50613 whole entry): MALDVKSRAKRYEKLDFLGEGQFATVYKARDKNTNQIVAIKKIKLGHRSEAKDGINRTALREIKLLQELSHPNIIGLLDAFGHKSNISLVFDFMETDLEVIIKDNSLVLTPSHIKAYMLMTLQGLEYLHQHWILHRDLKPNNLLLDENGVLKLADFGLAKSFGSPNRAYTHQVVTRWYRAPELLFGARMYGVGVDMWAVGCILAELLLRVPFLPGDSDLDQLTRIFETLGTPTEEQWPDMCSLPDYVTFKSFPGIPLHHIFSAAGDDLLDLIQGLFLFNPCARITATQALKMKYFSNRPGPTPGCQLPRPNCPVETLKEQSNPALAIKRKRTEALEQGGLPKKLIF
T4 sequence (P51946 whole entry partner): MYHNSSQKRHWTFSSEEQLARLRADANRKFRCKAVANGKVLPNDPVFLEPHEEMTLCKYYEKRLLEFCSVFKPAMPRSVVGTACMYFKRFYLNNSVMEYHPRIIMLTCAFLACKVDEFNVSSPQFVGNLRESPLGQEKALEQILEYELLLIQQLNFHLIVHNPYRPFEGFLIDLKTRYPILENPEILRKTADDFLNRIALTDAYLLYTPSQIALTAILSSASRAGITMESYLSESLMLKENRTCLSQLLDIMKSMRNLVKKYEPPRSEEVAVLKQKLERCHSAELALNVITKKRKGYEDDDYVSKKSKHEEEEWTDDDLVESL
T4 sequence (P51948 whole entry partner): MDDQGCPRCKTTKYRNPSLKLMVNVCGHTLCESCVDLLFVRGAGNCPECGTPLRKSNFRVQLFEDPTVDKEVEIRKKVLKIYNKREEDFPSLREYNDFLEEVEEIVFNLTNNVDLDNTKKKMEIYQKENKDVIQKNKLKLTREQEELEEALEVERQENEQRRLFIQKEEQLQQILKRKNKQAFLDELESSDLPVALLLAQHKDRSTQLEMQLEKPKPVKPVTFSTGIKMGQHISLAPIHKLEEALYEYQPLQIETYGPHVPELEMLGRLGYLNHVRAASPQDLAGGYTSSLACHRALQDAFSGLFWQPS

| CDK1/CDK7: Selectivity of CDK7 inhibition over CDK1 inhibition | Compound |
| --- | --- |
| A (A=greater than 200 fold) | CC(C)c1cnn2c(NCc3ccccc3-n3cccn3)nc(-c3cccc(OC4CCNC4)c3)nc12 (racemic) [Compound 163] |
| A (A=greater than 200 fold) | CC(C)c1cnn2c(NCc3ccccc3-c3ccc4ccccc4n3)nc(N3CCC(N)CC3)nc12 [Compound 48] |

same assay, conditions: CDK7 over CDK2

| Compound | CDK2/CDK7: Selectivity of CDK7 inhibition over CDK2 inhibition |
| --- | --- |
| CC(C)c1cnn2c(NCc3ccccc3-n3cccn3)nc(-c3cccc(OC4CCNC4)c3)nc12 (racemic) [Compound 163] | B (B=less than 200 fold, but greater than 20 fold) |
| CC(C)c1cnn2c(NCc3ccccc3-c3ccc4ccccc4n3)nc(N3CCC(N)CC3)nc12 [Compound 48] | A (A=greater than 200 fold) |

same assay, conditions: CDK7 over CDK5

| Compound | CDK5/CDK7: Selectivity of CDK7 inhibition over CDK5 inhibition |
| --- | --- |
| CC(C)c1cnn2c(NCc3ccccc3-n3cccn3)nc(-c3cccc(OC4CCNC4)c3)nc12 (racemic) [Compound 163] | B (B=less than 200 fold, but greater than 20 fold) |
| CC(C)c1cnn2c(NCc3ccccc3-c3ccc4ccccc4n3)nc(N3CCC(N)CC3)nc12 [Compound 48] | B (B=less than 200 fold, but greater than 20 fold) |

same assay, conditions: read-out: CDK7 enzymatic activity (IC50 range)

| IC50 [nM] | Compound |
| --- | --- |
| < 100 | CC(C)c1cnn2c(NCc3ccccc3-n3cccn3)nc(-c3cccc(OC4CCNC4)c3)nc12 (racemic) [Compound 163] |
| < 100 | CC(C)c1cnn2c(NCc3ccccc3-c3ccc4ccccc4n3)nc(N3CCC(N)CC3)nc12 [Compound 48] |

tested on: A2780; test: Cellular A2780 viability assay (CellTiter-Glo, 72 hours); type: cell-based; settings: Homo sapiens
Method in brief: as §3

| IC50 [nM] | Compound |
| --- | --- |
| ≤ 1000 | CC(C)c1cnn2c(NCc3ccccc3-n3cccn3)nc(-c3cccc(OC4CCNC4)c3)nc12 (racemic) [Compound 163] |
| ≤ 1000 | CC(C)c1cnn2c(NCc3ccccc3-c3ccc4ccccc4n3)nc(N3CCC(N)CC3)nc12 [Compound 48] |
